In assay [1] the test system is phosphorylation of Serine 473 in Akt, HCT 116 human colon carcinoma cells. Description: Cell-based phospho-AKT Ser473 assay (MSD sandwich immunoassay, IGF-1 stimulated). Particulars: Homo sapiens. An outline of the steps: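 Akt Ser473 phosphorylation was measured by MSD electrochemiluminescent sandwich immunoassay in lysates of HCT116 cells (16,000 cells/well). Cells received a compound dilution series for 2 h at 37 °C before a 15 min IGF-1 (100 ng/ml) stimulus, with IC50 calculated from the dose-response.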

In assay [2] the target is T1, PI3K α (Homo sapiens, UniProt P42336).
T1 construct: Full length p110 subunits of PI3K α, β and δ, N-terminally labeled with polyHis tag; polyHis (N); made in house; host or cells: Sf9 insect cells (baculovirus)
T1 sequence (P42336 whole entry, species assumed): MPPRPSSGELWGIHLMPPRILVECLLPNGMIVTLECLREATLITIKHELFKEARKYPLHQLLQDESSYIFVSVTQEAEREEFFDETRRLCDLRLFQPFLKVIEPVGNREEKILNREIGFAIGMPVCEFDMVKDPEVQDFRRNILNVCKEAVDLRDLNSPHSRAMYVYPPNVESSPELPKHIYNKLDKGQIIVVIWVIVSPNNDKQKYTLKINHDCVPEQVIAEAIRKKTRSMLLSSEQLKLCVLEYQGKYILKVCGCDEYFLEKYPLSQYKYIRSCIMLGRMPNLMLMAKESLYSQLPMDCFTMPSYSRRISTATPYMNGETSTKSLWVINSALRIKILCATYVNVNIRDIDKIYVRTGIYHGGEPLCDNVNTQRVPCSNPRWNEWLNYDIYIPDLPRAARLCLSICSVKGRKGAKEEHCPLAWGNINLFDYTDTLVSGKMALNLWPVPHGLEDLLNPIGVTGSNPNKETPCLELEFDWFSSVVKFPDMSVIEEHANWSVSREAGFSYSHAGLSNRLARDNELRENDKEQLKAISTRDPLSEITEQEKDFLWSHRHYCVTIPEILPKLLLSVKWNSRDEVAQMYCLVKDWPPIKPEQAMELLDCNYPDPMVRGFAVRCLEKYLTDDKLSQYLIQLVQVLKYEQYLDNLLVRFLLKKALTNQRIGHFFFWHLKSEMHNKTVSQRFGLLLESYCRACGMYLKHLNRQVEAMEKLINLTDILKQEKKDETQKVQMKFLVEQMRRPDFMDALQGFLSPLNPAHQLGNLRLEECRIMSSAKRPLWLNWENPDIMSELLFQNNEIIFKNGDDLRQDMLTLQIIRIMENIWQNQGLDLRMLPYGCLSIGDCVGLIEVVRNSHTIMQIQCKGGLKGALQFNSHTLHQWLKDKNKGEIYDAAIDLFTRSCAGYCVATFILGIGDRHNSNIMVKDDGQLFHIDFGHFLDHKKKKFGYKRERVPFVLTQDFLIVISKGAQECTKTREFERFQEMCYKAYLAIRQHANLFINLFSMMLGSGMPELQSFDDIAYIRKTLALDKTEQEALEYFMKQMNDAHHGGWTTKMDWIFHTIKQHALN
T1 sequence (P27986 whole entry partner, species assumed): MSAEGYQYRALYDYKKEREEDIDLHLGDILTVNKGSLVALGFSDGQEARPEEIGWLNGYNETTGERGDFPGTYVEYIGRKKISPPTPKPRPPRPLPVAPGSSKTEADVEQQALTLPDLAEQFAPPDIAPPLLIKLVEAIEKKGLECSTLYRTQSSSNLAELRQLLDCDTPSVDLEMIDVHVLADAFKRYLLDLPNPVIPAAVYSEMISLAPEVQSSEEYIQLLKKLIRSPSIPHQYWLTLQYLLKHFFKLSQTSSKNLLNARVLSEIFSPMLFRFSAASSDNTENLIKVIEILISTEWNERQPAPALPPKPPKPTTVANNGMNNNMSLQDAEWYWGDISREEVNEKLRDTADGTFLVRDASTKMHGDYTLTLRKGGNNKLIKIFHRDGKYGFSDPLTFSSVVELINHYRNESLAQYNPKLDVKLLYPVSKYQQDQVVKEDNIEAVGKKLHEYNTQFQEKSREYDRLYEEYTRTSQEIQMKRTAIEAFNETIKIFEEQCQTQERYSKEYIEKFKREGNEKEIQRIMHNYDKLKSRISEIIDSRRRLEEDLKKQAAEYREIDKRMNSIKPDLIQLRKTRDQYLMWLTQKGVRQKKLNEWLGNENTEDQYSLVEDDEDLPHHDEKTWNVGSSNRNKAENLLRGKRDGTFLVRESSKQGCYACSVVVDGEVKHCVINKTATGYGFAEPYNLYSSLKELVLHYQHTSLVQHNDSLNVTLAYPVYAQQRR
Description: In vitro PI3 kinase enzyme assay (alpha), ATP loss, bioluminescence.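 Note: purified p110α/p85 heterodimer acting on PtdIns(4,5)P2 at room temperature, remaining ATP read by luminescence, inhibition scaled between compound-free wells with and without enzyme.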 Particulars: read-out: PI3Kα ATP loss IC50. Format: biochemical.
Description: Full length p110 subunits of PI3K α, β and δ, N-terminally labeled with polyHis tag, were co-expressed with p85 in baculovirus expression vectors in sf9 insect cells. P110/p85 heterodimers were purified by sequential Ni-NTA, Q-HP, and Superdex-100 chromatography. Purified α, β and δ isozymes were stored at −20° C. in 20 mM Tris, pH 8, 0.2M NaCl, 50% glycerol, 5 mM DTT, 2 mM Na cholate.
PI3K enzyme assays (alpha, beta, delta and gamma) were performed in 25 mL with the above final concentrations of components in white polypropylene plates (Costar catalogue #3355). Phosphatidyl inositol phosphoacceptor, PtdIns(4,5)P2 (eg. P4508) was obtained from Echelon Biosciences. The ATPase activity of the alpha and gamma isozymes was not greatly stimulated by PtdIns(4,5)P2 under these conditions and was therefore omitted from the assay of these isozymes. Test compounds were dissolved in DMSO and diluted with three-fold serial dilutions. The compound in DMSO (1 μL) was added per test well, and the inhibition relative to reactions containing no compound, with and without enzyme was determined. After assay incubation at RT, the reaction was stopped and residual ATP determined by addition of an equal volume of a commercial ATP bioluminescence kit (Perkin Elmer EasyLite) according to the manufacturer's instructions, and detected using an Analyst GT luminometer.

Assay [3] concerns the target T2, PI3K β (Homo sapiens, UniProt P42338).
T2 construct: Full length p110 subunits of PI3K α, β and δ, N-terminally labeled with polyHis tag; polyHis (N); made in house; host or cells: Sf9 insect cells (baculovirus)
The assay can be described thus: In vitro PI3 kinase enzyme assay (beta), ATP loss, bioluminescence.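 Note: purified p110β/p85 heterodimer with PtdIns(4,5)P2 as acceptor, incubated at room temperature, leftover ATP read by luminescence, inhibition scaled to compound-free wells with and without enzyme.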 It is filed as biochemical. Particulars: read-out: PI3Kβ ATP loss IC50.

Setting [4] is: HCT-116, HCT 116 cells, read-out: HCT 116 pAKT IC50.

SMILES strings stand for the structures. Read-outs that look alike come from different tables or passages of the source. Bounds are passed on as bounds.

Broadly, the IC50 is the concentration at which inhibition is half-maximal.

T2 sequence (P42338 whole entry): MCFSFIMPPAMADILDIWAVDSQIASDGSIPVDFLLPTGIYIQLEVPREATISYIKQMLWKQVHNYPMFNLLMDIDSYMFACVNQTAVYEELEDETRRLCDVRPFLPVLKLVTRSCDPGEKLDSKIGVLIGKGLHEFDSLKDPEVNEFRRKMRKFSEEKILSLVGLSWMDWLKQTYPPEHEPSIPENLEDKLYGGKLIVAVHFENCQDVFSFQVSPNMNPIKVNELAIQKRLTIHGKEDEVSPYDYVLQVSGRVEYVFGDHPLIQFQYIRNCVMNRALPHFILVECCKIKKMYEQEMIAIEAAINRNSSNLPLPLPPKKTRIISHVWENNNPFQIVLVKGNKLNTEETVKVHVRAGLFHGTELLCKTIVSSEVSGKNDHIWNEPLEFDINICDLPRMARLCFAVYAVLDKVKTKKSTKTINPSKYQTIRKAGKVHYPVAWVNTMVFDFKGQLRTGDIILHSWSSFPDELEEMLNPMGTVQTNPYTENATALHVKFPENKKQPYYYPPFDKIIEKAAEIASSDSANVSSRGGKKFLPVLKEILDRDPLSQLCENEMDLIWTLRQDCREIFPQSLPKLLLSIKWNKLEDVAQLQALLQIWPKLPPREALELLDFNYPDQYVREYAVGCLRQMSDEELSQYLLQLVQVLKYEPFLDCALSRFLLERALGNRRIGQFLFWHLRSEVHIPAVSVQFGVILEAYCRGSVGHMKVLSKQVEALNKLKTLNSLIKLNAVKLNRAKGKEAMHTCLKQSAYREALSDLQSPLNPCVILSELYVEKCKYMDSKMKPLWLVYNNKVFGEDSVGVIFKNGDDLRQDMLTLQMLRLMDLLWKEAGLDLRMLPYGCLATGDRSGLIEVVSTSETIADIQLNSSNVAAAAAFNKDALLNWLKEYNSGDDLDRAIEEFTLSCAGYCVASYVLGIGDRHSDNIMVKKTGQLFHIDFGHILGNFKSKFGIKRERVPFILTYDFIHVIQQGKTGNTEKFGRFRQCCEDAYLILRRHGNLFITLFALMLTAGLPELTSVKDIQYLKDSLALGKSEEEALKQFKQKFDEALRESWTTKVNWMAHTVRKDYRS
T2 sequence (P27986 whole entry partner): as the sequence (P27986 whole entry partner, species assumed) above

Turning to `CC(=O)Nc1nc2ccc(-c3cnc(Cl)c(NS(=O)(=O)c4ccc(C)cc4)c3)cc2s1` [Example 189, N-(6-(6-chloro-5-(4-methylphenylsulfonamido)pyridin-3-yl)benzo[d]thiazol-2-yl)acetamide], the half-inhibitory concentration (IC50) in assay [1] (setting [4]) is 3.9 nM; in assay [2], 6.4 nM; in assay [3], 7.7 nM.
For the compound `CC(=O)Nc1nc2ccc(-c3cccc(S(=O)(=O)c4ccc(F)cc4)n3)cc2s1` [Example 66, N-(6-(6-(4-Fluorophenylsulfonyl)pyridin-2-yl)benzo[d]thiazol-2-yl)acetamide], the values for the IC50 in assay [1] (setting [4]), in assay [2] and in assay [3] were 2020 nM, 258 nM and 5610 nM, respectively.
Take `COc1ccc(S(=O)(=O)N(C)c2nccc(-c3cc(F)c4nc(NC(C)=O)sc4c3)n2)cc1` [Example 143, N-(4-fluoro-6-(2-(((4-methoxyphenyl)sulfonyl)(methyl)amino)-4-pyrimidinyl)-1,3-benzothiazol-2-yl)acetamide]: the IC50 amounted to 328 nM in assay [1] (setting [4]), 111 nM in assay [2] and 109 nM in assay [3].
On to `COc1ccc(S(=O)(=O)Nc2cccc(-c3ccc4nc(NC(C)=O)sc4n3)c2)cc1` [Example 146, N-(5-(3-(4-methoxyphenylsulfonamido)phenyl)thiazolo[5,4-b]pyridin-2-yl)acetamide], for which the IC50 turned out to be 373 nM in assay [1] (HCT-116, read-out: HCT 116 pAKT IC50); 117 nM in assay [2]; 359 nM in assay [3].
Regarding `CCOc1cc(-c2ccc3nc(NC(C)=O)sc3c2)cnc1Cl` [Example 239, N-(6-(6-chloro-5-ethoxypyridin-3-yl)benzo[d]thiazol-2-yl)acetamide], the results for the IC50 in assay [1] (setting [4]), in assay [2] and in assay [3] were 2960 nM, 53.8 nM and 3790 nM, respectively.
Regarding `Nc1nc2ccc(-c3cnc(Cl)c(NS(=O)(=O)c4cccc(OC(F)F)c4)c3)cc2s1` [Example 307, N-(5-(2-amino-1,3-benzothiazol-6-yl)-2-chloro-3-pyridinyl)-3-(difluoromethoxy)benzenesulfonamide], the IC50 in assay [1] (setting [4]) is 115 nM; in assay [2], 6.7 nM; in assay [3], 17.3 nM.
Take `Cc1cc(F)ccc1S(=O)(=O)Nc1cc(-c2ccc3nc(N)sc3c2)cnc1Cl` [Example 312, N-(5-(2-amino-1,3-benzothiazol-6-yl)-2-chloro-3-pyridinyl)-4-fluoro-2-methylbenzenesulfonamide]: the IC50 in assay [1] (setting [4]) was 348 nM; in assay [2], 6 nM; in assay [3] it was 24.9 nM.
Turning to `CC(=O)Nc1nc2ccc(-c3ccnc(OCc4ccc5ncccc5c4)n3)cc2s1` [Example 22, N-(6-(2-(6-quinolinylmethoxy)-4-pyrimidinyl)-1,3-benzothiazol-2-yl)acetamide], the IC50 in assay [1] (setting [4]) was over 40000 nM; in assay [2] it was 124 nM; in assay [3], over 40000 nM.
In the case of `CC(=O)Oc1cc(-c2ccc3ncsc3c2)cnc1Cl` [Example 335, 5-(1,3-benzothiazol-6-yl)-2-chloro-3-pyridinyl acetate], the results for the IC50 in assay [1] (setting [4]), in assay [2] and in assay [3] were 44 nM, 15.6 nM and 113 nM, respectively.
Consider `CC(C)Nc1cc(-c2ccc3nc(NC(=O)Cc4ccccn4)sc3c2)cnc1Cl` [Example 141, N-(6-(6-chloro-5-(isopropylamino)pyridin-3-yl)benzo[d]thiazol-2-yl)-2-(pyridin-2-yl)acetamide], for which the IC50 in assay [1] (setting [4]) is 850 nM; in assay [2], 95.4 nM; in assay [3] it was 846 nM.
For the compound `Nc1nc2ccc(-c3cnc(Cl)c(NS(=O)(=O)c4ccc(C(F)(F)F)cc4Cl)c3)cc2s1` [Example 308, N-(5-(2-amino-1,3-benzothiazol-6-yl)-2-chloro-3-pyridinyl)-2-chloro-4-(trifluoromethyl)benzenesulfonamide], the IC50 in assay [1] (setting [4]) is 501 nM; in assay [2] it was 2.6 nM; in assay [3] it was 10.6 nM.
Take `CC(=O)Nc1nc2ccc(-c3cnc(Cl)c(NS(=O)(=O)c4cccs4)c3)cc2s1` [Example 186, N-(6-(6-chloro-5-(thiophene-2-sulfonamido)pyridin-3-yl)benzo[d]thiazol-2-yl)acetamide]: the figures for the IC50 in assay [1] (setting [4]), in assay [2] and in assay [3] were 15.6 nM, 6.6 nM and 14.3 nM, respectively.
Regarding `CC(=O)Nc1nc2ccc(-c3cnc(C)c(NS(=O)(=O)c4ccccc4F)c3)cc2s1` [Example 112, N-(6-(5-(((2-fluorophenyl)sulfonyl)amino)-6-methyl-3-pyridinyl)-1,3-benzothiazol-2-yl)acetamide], the IC50 turned out to be 16.9 nM in assay [1] (setting [4]), 5.5 nM in assay [2] and 9.1 nM in assay [3].
In the same order, the values of `CC(=O)Nc1nc2ccc(-c3cncc(NS(=O)(=O)c4ccc(C(C)O)cc4)c3)cc2s1` (stereo not drawn) [Example 259, N-(6-(5-(4-(1-hydroxyethyl)phenylsulfonamido)pyridin-3-yl)benzo[d]thiazol-2-yl)acetamide] are 388 nM, 12.1 nM and 32.2 nM.
For `COc1ncc(-c2ccc3nc(NC(C)=O)sc3c2)cc1NC(C)C` [Example 145, N-(6-(6-methoxy-5-((1-methylethyl)amino)-3-pyridinyl)-1,3-benzothiazol-2-yl)acetamide], the IC50 in assay [1] (setting [4]) came out at 851 nM; in assay [2], 114 nM; in assay [3] it was 424 nM.
As for `CC(=O)Nc1nc2ccc(-c3cnc(Cl)c(NS(=O)(=O)c4cc(Cl)cc(Cl)c4)c3)cc2s1` [Example 175, N-(6-(6-chloro-5-(3,5-dichlorophenylsulfonamido)pyridin-3-yl)benzo[d]thiazol-2-yl)acetamide], the IC50 in assay [1] (setting [4]) stood at 11.7 nM; in assay [2], 3.2 nM; in assay [3], 5.4 nM.
With `COc1ccc(S(=O)(=O)c2cccc(-c3cc(F)c4nc(NC(C)=O)sc4c3)n2)cc1` [Example 148, N-(4-fluoro-6-(6-((4-methoxyphenyl)sulfonyl)-2-pyridinyl)-1,3-benzothiazol-2-yl)acetamide], the IC50 was 881 nM in assay [1] (setting [4]), 151 nM in assay [2] and 1360 nM in assay [3].
Consider `Nc1nc2ccc(-c3cnc(Cl)c(NS(=O)(=O)c4ccc(Cl)cc4F)c3)cc2s1` [Example 313, N-(5-(2-amino-1,3-benzothiazol-6-yl)-2-chloro-3-pyridinyl)-4-chloro-2-fluorobenzenesulfonamide], for which the IC50 is 424 nM in assay [1] (setting [4]), 13.6 nM in assay [2] and 27.9 nM in assay [3].
For `CC(=O)Nc1nc2ccc(-c3cnc(C)c(NS(=O)(=O)c4ccc(F)cc4)c3)cc2s1` [Example 111, N-(6-(5-(((4-fluorophenyl)sulfonyl)amino)-6-methyl-3-pyridinyl)-1,3-benzothiazol-2-yl)acetamide], the results for the IC50 in assay [1] (setting [4]), in assay [2] and in assay [3] were 25.5 nM, 4.1 nM and 13.1 nM, respectively.
As to `CNC(=O)Nc1nc2ccc(-c3ccnc(OCc4ccccc4)n3)cc2s1` [Example 56, 1-(6-(2-(benzyloxy)-4-pyrimidinyl)-1,3-benzothiazol-2-yl)-3-methylurea], the IC50 is over 5000 nM in assay [1] (setting [4]), 254 nM in assay [2] and 402 nM in assay [3].
`CC(=O)Nc1nc2ccc(-c3cnc(C#N)c(N)c3)cc2s1` [Example 268, N-(6-(5-amino-6-cyanopyridin-3-yl)benzo[d]thiazol-2-yl)acetamide]: the IC50 amounted to 842 nM in assay [1] (setting [4]), 241 nM in assay [2] and 17000 nM in assay [3].
Take `CC(=O)Nc1nc2ccc(-c3cnc(Cl)c(NC(C)C)c3)cc2s1` [Example 132, N-(6-(6-chloro-5-((1-methylethyl)amino)-3-pyridinyl)-1,3-benzothiazol-2-yl)acetamide]: the half-inhibitory concentration (IC50) in assay [1] (setting [4]) came out at 316 nM; in assay [2], 41.4 nM; in assay [3], 379 nM.
Take `CC(=O)Nc1nc2ccc(-c3cncc(NS(=O)(=O)c4cccc(C(F)(F)F)c4)c3)cc2s1` [Example 197, N-(6-(5-(3-(trifluoromethyl)phenylsulfonamido)pyridin-3-yl)benzo[d]thiazol-2-yl)acetamide]: the values for the IC50 in assay [1] (setting [4]), in assay [2] and in assay [3] were 79.8 nM, 9.4 nM and 11.9 nM, respectively.
As for `Nc1nc2ccc(-c3cnc(Cl)c(NS(=O)(=O)c4ccc(Cl)cc4Cl)c3)cc2s1` [Example 310, N-(5-(2-amino-1,3-benzothiazol-6-yl)-2-chloro-3-pyridinyl)-2,4-dichlorobenzenesulfonamide], the IC50 in assay [1] (setting [4]) was 402 nM; in assay [2], 7.6 nM; in assay [3], 17.4 nM.
Take `CC(=O)Nc1nc2ccc(-c3cnc(C)c(NS(=O)(=O)c4cccc(C(F)(F)F)c4)c3)cc2s1` [Example 113, N-(6-(6-methyl-5-(((3-(trifluoromethyl)phenyl)sulfonyl)amino)-3-pyridinyl)-1,3-benzothiazol-2-yl)acetamide]: the IC50 turned out to be 6.7 nM in assay [1] (setting [4]), 6.4 nM in assay [2] and 13 nM in assay [3].
For `COc1cccc(S(=O)(=O)Nc2nccc(-c3ccc4nc(NC(C)=O)sc4c3)n2)c1` [Example 85, N-(6-(2-(((3-methoxyphenyl)sulfonyl)amino)-4-pyrimidinyl)-1,3-benzothiazol-2-yl)acetamide], the IC50 was determined as 917 nM in assay [1] (setting [4]), 20.1 nM in assay [2] and 82.6 nM in assay [3].
Turning to `CC(=O)Nc1nc2ccc(-c3ccnc(OC(C)C)n3)cc2s1` [Example 6, N-(6-(2-(1-methylethoxy)-4-pyrimidinyl)-1,3-benzothiazol-2-yl)acetamide], the values for the IC50 in assay [1] (setting [4]), in assay [2] and in assay [3] were 920 nM, 240 nM and 2140 nM, respectively.

Values taken from patent US7928140B2, “Benzothiazole PI3 kinase modulators for cancer treatment” (Amgen Inc., priority 2007, dated 2011).
